Test system: yeast genes (expressed mRNA)
Assay: DNA chip measurement of expressed mRNA of yeast genes after culture with a toxic chemical substance
Assay type: cell-based, Saccharomyces cerevisiae S288C
Details: for level of expressed mRNA in the presence of chemical substance / level in the absence of chemical substance: cultured two hours with the chemical substance; for The level of expressed mRNA in the presence of chemical substance/The level of expressed mRNA in the absence of chemical substance: cultured two hours with substance
How it was run: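 Each expression value is the mRNA level in chemical-treated yeast divided by that in untreated yeast, from Cy3/Cy5 fluorescence on a whole-genome chip. Log-phase S288C cells in YPD at 25° C had received a sublethal, growth-inhibiting dose for two hours. Intensity denotes control expression relative to the all-gene mean.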

Q: With `[Cl][Hg][Cl]` [(3), HgCl2] as the molecule, how does the “level of expressed mRNA in the presence of chemical substance / level in the absence of chemical substance” value (yeast gene YJL097W) read?
A: 3.7

Q: What about the “The level of expressed mRNA in the presence of chemical substance/The level of expressed mRNA in the absence of chemical substance” value (yeast gene YJL151C) of the same molecule?
A: 3.2

Q: What about the “The level of expressed mRNA in the presence of chemical substance/The level of expressed mRNA in the absence of chemical substance” value (yeast gene YJL152W) of the same molecule?
A: 1.8

Q: And the “The level of expressed mRNA in the presence of chemical substance/The level of expressed mRNA in the absence of chemical substance” value (yeast gene YJL161W)?
A: 1.5

Q: And the “The level of expressed mRNA in the presence of chemical substance/The level of expressed mRNA in the absence of chemical substance” value (yeast gene YJL171C)?
A: 2.8

Q: What about the “The level of expressed mRNA in the presence of chemical substance/The level of expressed mRNA in the absence of chemical substance” value (yeast gene YJR008W) of the same molecule?
A: 1.2

Q: And the “level of expressed mRNA in the presence of chemical substance / level in the absence of chemical substance” value (yeast gene YJR030C)?
A: 0.9

Q: What about the “The level of expressed mRNA in the presence of chemical substance/The level of expressed mRNA in the absence of chemical substance” value (yeast gene YJR054W) of the same molecule?
A: 0.3

Q: What about the “level of expressed mRNA in the presence of chemical substance / level in the absence of chemical substance” value (yeast gene YKL051W) of the same molecule?
A: 4.7

Q: And the “The level of expressed mRNA in the presence of chemical substance/The level of expressed mRNA in the absence of chemical substance” value (yeast gene YKL071W)?
A: 5.4

Q: What about the “The level of expressed mRNA in the presence of chemical substance/The level of expressed mRNA in the absence of chemical substance” value (yeast gene YKL086W) of the same molecule?
A: 2.4

Q: What about the “level of expressed mRNA in the presence of chemical substance / level in the absence of chemical substance” value (yeast gene YKL097C) of the same molecule?
A: 0.6

Q: And the “level of expressed mRNA in the presence of chemical substance / level in the absence of chemical substance” value (yeast gene YKL100C)?
A: 5.0

Q: And the “The level of expressed mRNA in the presence of chemical substance/The level of expressed mRNA in the absence of chemical substance” value (yeast gene YKL151C)?
A: 1.7

Q: What about the “The level of expressed mRNA in the presence of chemical substance/The level of expressed mRNA in the absence of chemical substance” value (yeast gene YKL153W) of the same molecule?
A: 2.0

Q: What about the “The level of expressed mRNA in the presence of chemical substance/The level of expressed mRNA in the absence of chemical substance” value (yeast gene YKL195W) of the same molecule?
A: 0.4

Q: And the “level of expressed mRNA in the presence of chemical substance / level in the absence of chemical substance” value (yeast gene YKR040C)?
A: 2.4

Q: And the “The level of expressed mRNA in the presence of chemical substance/The level of expressed mRNA in the absence of chemical substance” value (yeast gene YKR091W)?
A: 0.9

Q: And the “The level of expressed mRNA in the presence of chemical substance/The level of expressed mRNA in the absence of chemical substance” value (yeast gene YLR054C)?
A: 0.4

Q: What about the “The level of expressed mRNA in the presence of chemical substance/The level of expressed mRNA in the absence of chemical substance” value (yeast gene YLR149C) of the same molecule?
A: 3.4

Q: What about the “The level of expressed mRNA in the presence of chemical substance/The level of expressed mRNA in the absence of chemical substance” value (yeast gene YLR152C) of the same molecule?
A: 1.1

Q: And the “The level of expressed mRNA in the presence of chemical substance/The level of expressed mRNA in the absence of chemical substance” value (yeast gene YLR194C)?
A: 1.3

Q: What about the “level of expressed mRNA in the presence of chemical substance / level in the absence of chemical substance” value (yeast gene YLR226W) of the same molecule?
A: 0.3

Q: What about the “The level of expressed mRNA in the presence of chemical substance/The level of expressed mRNA in the absence of chemical substance” value (yeast gene YLR324W) of the same molecule?
A: 0.9

Q: And the “level of expressed mRNA in the presence of chemical substance / level in the absence of chemical substance” value (yeast gene YLR338W)?
A: 1.4

Q: What about the “The level of expressed mRNA in the presence of chemical substance/The level of expressed mRNA in the absence of chemical substance” value (yeast gene YLR350W) of the same molecule?
A: 3.2

Q: And the “The level of expressed mRNA in the presence of chemical substance/The level of expressed mRNA in the absence of chemical substance” value (yeast gene YLR387C)?
A: 0.8

Q: And the “level of expressed mRNA in the presence of chemical substance / level in the absence of chemical substance” value (yeast gene YLR392C)?
A: 0.8

Q: What about the “level of expressed mRNA in the presence of chemical substance / level in the absence of chemical substance” value (yeast gene YLR415C) of the same molecule?
A: 6.7

Q: And the “level of expressed mRNA in the presence of chemical substance / level in the absence of chemical substance” value (yeast gene YLR427W)?
A: 0.2

Q: And the “The level of expressed mRNA in the presence of chemical substance/The level of expressed mRNA in the absence of chemical substance” value (yeast gene YLR460C)?
A: 2.0

Q: And the “level of expressed mRNA in the presence of chemical substance / level in the absence of chemical substance” value (yeast gene YML013W)?
A: 0.4

Q: And the “level of expressed mRNA in the presence of chemical substance / level in the absence of chemical substance” value (yeast gene YML029W)?
A: 1.3

Q: And the “level of expressed mRNA in the presence of chemical substance / level in the absence of chemical substance” value (yeast gene YML041C)?
A: 0.6

Q: What about the “level of expressed mRNA in the presence of chemical substance / level in the absence of chemical substance” value (yeast gene YML079W) of the same molecule?
A: 1.1

Q: What about the “The level of expressed mRNA in the presence of chemical substance/The level of expressed mRNA in the absence of chemical substance” value (yeast gene YML117W) of the same molecule?
A: 0.9

Q: What about the “The level of expressed mRNA in the presence of chemical substance/The level of expressed mRNA in the absence of chemical substance” value (yeast gene YMR009W) of the same molecule?
A: 0.5

Q: And the “The level of expressed mRNA in the presence of chemical substance/The level of expressed mRNA in the absence of chemical substance” value (yeast gene YMR067C)?
A: 1.1

Q: And the “level of expressed mRNA in the presence of chemical substance / level in the absence of chemical substance” value (yeast gene YMR068W)?
A: 0.8

Q: And the “level of expressed mRNA in the presence of chemical substance / level in the absence of chemical substance” value (yeast gene YMR071C)?
A: 1.1

Q: What about the “The level of expressed mRNA in the presence of chemical substance/The level of expressed mRNA in the absence of chemical substance” value (yeast gene YMR090W) of the same molecule?
A: 2.3

Q: And the “The level of expressed mRNA in the presence of chemical substance/The level of expressed mRNA in the absence of chemical substance” value (yeast gene YMR095C)?
A: 1.6

Q: And the “The level of expressed mRNA in the presence of chemical substance/The level of expressed mRNA in the absence of chemical substance” value (yeast gene YMR097C)?
A: 0.7

Q: What about the “The level of expressed mRNA in the presence of chemical substance/The level of expressed mRNA in the absence of chemical substance” value (yeast gene YMR102C) of the same molecule?
A: 1.1

Q: What about the “The level of expressed mRNA in the presence of chemical substance/The level of expressed mRNA in the absence of chemical substance” value (yeast gene YMR107W) of the same molecule?
A: 1.7

Q: And the “level of expressed mRNA in the presence of chemical substance / level in the absence of chemical substance” value (yeast gene YMR160W)?
A: 1.2

Q: What about the “The level of expressed mRNA in the presence of chemical substance/The level of expressed mRNA in the absence of chemical substance” value (yeast gene YMR180C) of the same molecule?
A: 1.0

Q: And the “The level of expressed mRNA in the presence of chemical substance/The level of expressed mRNA in the absence of chemical substance” value (yeast gene YMR184W)?
A: 1.0

Q: What about the “The level of expressed mRNA in the presence of chemical substance/The level of expressed mRNA in the absence of chemical substance” value (yeast gene YMR191W) of the same molecule?
A: 1.9

Q: What about the “The level of expressed mRNA in the presence of chemical substance/The level of expressed mRNA in the absence of chemical substance” value (yeast gene YMR295C) of the same molecule?
A: 1.2

Q: What about the “The level of expressed mRNA in the presence of chemical substance/The level of expressed mRNA in the absence of chemical substance” value (yeast gene YMR316W) of the same molecule?
A: 1.1

Q: What about the “level of expressed mRNA in the presence of chemical substance / level in the absence of chemical substance” value (yeast gene YNL026W) of the same molecule?
A: 1.3

Q: And the “The level of expressed mRNA in the presence of chemical substance/The level of expressed mRNA in the absence of chemical substance” value (yeast gene YNL044W)?
A: 2.3
